Experimental data as given in patent US20080193411A1, “Anti-viral Compounds” (Genelabs Technologies, Inc., priority 2006, published 2008).

Test system: HCV replication
Assay: HCV replicon assay (luciferase), ET (Huh-lucubineo-ET) cell line
Format: cell-based
Settings: Hepatitis C virus; tested at 10 μM; ET (Huh-lucubineo-ET) replicon cells; luciferase activity 48-72 hours; relative to no compound control
Protocol: A cell line, ET (Huh-lucubineo-ET) was used for screening of compounds of the present invention for inhibiting HCV replication. The ET cell line was stably transfected with RNA transcripts harboring a I389luc-ubi-neo/NS3-3′/ET; replicon with firefly luciferase-ubiquitin-neomycin phosphotransferase fusion protein and EMCV-IRES driven NS3-5B polyprotein containing the cell culture adaptive mutations (E1202G; T1280I; K1846T) (Krieger at al, 2001 and unpublished). The ET cells were grown in DMEM (Dulbeco's Modified Eagle's Medium), supplemented with 10% fetal calf serum, 2 mM Glutamine, Penicillin (100 IU/mL)/Streptomycin (100 μg/mL), 1× nonessential amino acids, and 250 μg/mL G418 (“Geneticin”). They were all available through Life Technologies (Bethesda, Md.). The cells were plated at 0.5-1.0×10^4 cells/well in the 96 well plates and incubated for 24 hrs before adding testing compounds. Then the compounds were added to the cells to achieve a final concentration of 0.1 nM to 50 μM and a final DMSO concentration of 0.5%. Luciferase activity were measured 48-72 hours later by adding a lysis buffer and the substrate (Catalog number Glo-lysis buffer E2661 and Bright-Glo luciferase system E2620 Promega, Madison, Wis.). Cells should not be too confluent during the assay. Percent inhibition of replication was plotted relative to no compound control. Under the same condition, cytotoxicity of the compounds was determined using cell proliferation reagent, WST-1 (Roche, Germany). The compounds showing antiviral activities, but no significant cytotoxicities were chosen to determine EC50 and TC50. For these determinations, a 10 point 2-fold serial dilution for each compound was used, which spans a concentration range of 1000 fold. EC50 and similarly TC50 values were calculated by fitting % inhibition at each concentration to the following equation:
% inhibition=100%/[(IC50/[I])^b+1]
where b is Hill's coefficient.
In some preferred embodiments compounds of Formula I will have a % inhibition of at least 20% when tested at 10 μM. In other embodiments the compounds of Formula I will have a % inhibition of at least 50% when tested at 10 μM.

Row | SMILES | inhibition at 10 µM
1 | O=C(Nc1ccc(-c2cccc(C#C[C@@H]3CCCN3C(=O)OCc3ccccc3)c2)cc1)C1CC1 [Compound 4004, (S)-2-[4′-(Cyclopropanecarbonyl-amino)-biphenyl-3-ylethynyl]-pyrrolidine-1-carboxylic acid benzyl ester] | 81.8%
2 | O=C(OCc1ccccc1)N1CCC[C@H]1c1nc2ccc(-c3cccc4cc[nH]c34)cc2[nH]1 [Compound 4014, (S)-2-[6-(1H-Indol-7-yl)-1H-benzoimidazol-2-yl]-pyrrolidine-1-carboxylic acid benzyl ester] | 12.7%
3 | O=C(Cc1ccc(-c2cccc(C#C[C@@H]3CCCN3C(=O)OCc3ccccc3)c2)cc1)NC1CC1 [Compound 4024, 2-(4′-Cyclopropylcarbamoyl-methyl-biphenyl-3-ylethynyl)-pyrrolidine-1-carboxylic acid benzylester] | 45.9%
4 | O=C(NC1CC1)c1ccc(-c2ccc3nc([C@@H]4CCCN4C(=O)OCc4ccccc4)sc3c2)cc1 [Compound 4022, 2-[6-(4-Cyclopropylcarbamoyl-phenyl)-benzothiazol-2-yl]-pyrrolidine-1-carboxylic acid benzylester] | 14.9%
5 | O=C(NC1CC1)c1cccc(-c2ccc3nc([C@@H]4CCCN4C(=O)OCc4ccccc4)[nH]c3c2)c1 [Compound 4001, (S)-2-[6-(3-Cyclopropylcarbamoyl-phenyl)-1H-benzoimidazol-2-yl]-pyrrolidine-1-carboxylic acid benzyl ester] | 94.5%
6 | O=C(OCc1ccccc1)N1CCC[C@H]1c1nc2ccc(-c3ccc4[nH]c5ccccc5c4c3)cc2[nH]1 [Compound 4047, (S)-2-[6-(9H-Carbazol-3-yl)-1H-benzoimidazol-2-yl]-pyrrolidine-1-carboxylic acid benzyl ester] | 98.2%
7 | COc1ccc(-c2ccc3nc([C@@H]4CCCN4C(=O)OCc4ccccc4)[nH]c3c2)c(OC)c1 [Compound 4017, (S)-2-[6-(2,4-Dimethoxy-phenyl)-1H-benzoimidazol-2-yl]-pyrrolidine-1-carboxylic acid benzyl ester] | 42.4%
8 | O=C(NC1CC1)c1ccc(-c2ccc3nc([C@@H]4CCCN4C(=O)OCc4ccccc4)[nH]c3c2)cc1 [Compound 4020, (S)-2-[6-(4-Cyclopropylcarbamoyl-phenyl)-1H-benzoimidazol-2-yl]-pyrrolidine-1-carboxylic acid benzyl ester] | 96.1%
9 | O=C(Nc1cccc(-c2ccc3nc([C@@H]4CCCN4C(=O)OCc4ccccc4)[nH]c3c2)c1)C1CC1 [Compound 4037, (S)-2-{6-[3-(Cyclopropanecarbonyl-amino)-phenyl]-1H-benzoimidazol-2-yl}-pyrrolidine-1-carboxylic acid benzyl ester] | 97.6%
10 | O=C(Cc1cccc(-c2ccc([C@@H]3CCCN3C(=O)OCc3ccccc3)cc2)c1)NC1CC1 (stereo in doubt) [Compound 4043, 2-(3′-Cyclopropylcarbamoylmethyl-biphenyl-4-yl)-pyrrolidine-1-carboxylic acid benzyl ester] | 40%
11 | Nc1ccc(-c2ccc3nc([C@@H]4CCCN4C(=O)OCc4ccccc4)[nH]c3c2)cc1 [Compound 4008, (S)-2-[6-(4-Amino-phenyl)-1H-benzoimidazol-2-yl]-pyrrolidine-1-carboxylic acid benzyl ester] | 13.6%
12 | O=C(NC1CC1)c1ccc(-c2ccc([C@@H]3CCCN3C(=O)OCc3ccccc3)cc2)cc1 (stereo in doubt) [Compound 4044, 2-(4′-Cyclopropylcarbamoyl-biphenyl-4-yl)-pyrrolidine-1-carboxylic acid benzyl ester] | 53.1%
13 | O=C(NC1CC1)c1ccc(-c2ccc3nc([C@@H]4CCCN4C(=O)OCc4ccccc4)oc3c2)cc1 [Compound 4019, (S)-2-[6-(4-Cyclopropylcarbamoyl-phenyl)-benzooxazol-2-yl]-pyrrolidine-1-carboxylic acid benzyl ester] | 50.5%
14 | O=C(OCc1ccccc1)N1CCC[C@H]1c1nc2ccc(-c3ccco3)cc2[nH]1 [Compound 4030, (S)-2-(6-Furan-2-yl-1H-benzoimidazol-2-yl)-pyrrolidine-1-carboxylic acid benzyl ester] | 66.8%
15 | O=C(OCc1ccccc1)N1CCC[C@H]1c1nc2ccc(-c3ccc4[nH]ccc4c3)cc2s1 [Compound 4005, (S)-2-[6-(1H-Indol-5-yl)-benzothiazol-2-yl]-pyrrolidine-1-carboxylic acid benzyl ester] | 1.7%
16 | O=C(OCc1ccccc1)N1CCC[C@H]1c1nc2ccc(-c3ccc4[nH]ccc4c3)cc2o1 [Compound 4039, (S)-2-[6-(1H-Indol-5-yl)-benzooxazol-2-yl]-pyrrolidine-1-carboxylic acid benzyl ester] | 49.6%
17 | O=C(OCc1ccccc1)N1CCC[C@H]1c1nc2ccc(-c3cc([N+](=O)[O-])c4[nH]ccc4c3)cc2[nH]1 [Compound 4033, (S)-2-[6-(7-Nitro-1H-indol-5-yl)-1H-benzoimidazol-2-yl]-pyrrolidine-1-carboxylic acid benzyl ester] | 97.5%
18 | CC(=O)c1cccc(-c2ccc3nc([C@@H]4CCCN4C(=O)OCc4ccccc4)[nH]c3c2)c1 [Compound 4045, (S)-2-[6-(3-Acetyl-phenyl)-1H-benzoimidazol-2-yl]-pyrrolidine-1-carboxylic acid benzyl ester] | 99.8%
19 | O=C(NC1CC1)c1ccc(-c2cccc(C#C[C@@H]3CCCN3C(=O)OCc3ccccc3)c2)cc1 [Compound 4060, (S)-2-(4′-Cyclopropylcarbamoyl-biphenyl-3-ylethynyl)-pyrrolidine-1-carboxylic acid benzyl ester] | 48.4%
20 | N#Cc1ccc(-c2ccc3nc([C@@H]4CCCN4C(=O)OCc4ccccc4)[nH]c3c2)cc1 [Compound 4049, (S)-2-[6-(4-Cyano-phenyl)-1H-benzoimidazol-2-yl]-pyrrolidine-1-carboxylic acid benzyl ester] | 20%
21 | O=C(OCc1ccccc1)N1CCC[C@H]1c1nc2ccc(-c3cccc(O)c3)cc2[nH]1 [Compound 4054, (S)-2-[6-(3-Hydroxy-phenyl)-1H-benzoimidazol-2-yl]-pyrrolidine-1-carboxylic acid benzyl ester] | 99.3%
22 | O=C(OCc1ccccc1)N1CCC[C@H]1c1nc2ccc(-c3ccccc3)cc2[nH]1 [Compound 4007, (S)-2-(6-Phenyl-1H-benzoimidazol-2-yl)-pyrrolidine-1-carboxylic acid benzyl ester] | 4.4%
23 | O=C(NCc1cccc(-c2ccc3nc([C@@H]4CCCN4C(=O)OCc4ccccc4)[nH]c3c2)c1)C1CC1 [Compound 4057, (S)-2-(6-{3-[(Cyclopropanecarbonyl-amino)-methyl]-phenyl}-1H-benzoimidazol-2-yl)-pyrrolidine-1-carboxylic acid benzyl ester] | 99.4%
24 | O=C(NC1CC1)c1ccc(-c2csc(NC[C@@H]3CCCN3C(=O)OCc3ccccc3)n2)cc1 [Compound 4055, (S)-2-{[4-(4-Cyclopropylcarbamoyl-phenyl)-thiazol-2-ylamino]-methyl}-pyrrolidine-1-carboxylic acid benzyl ester] | 44%
25 | NC(=O)Nc1ccc(-c2ccc3nc([C@@H]4CCCN4C(=O)OCc4ccccc4)[nH]c3c2)cc1 [Compound 4034, (S)-2-[6-(4-Ureido-phenyl)-1H-benzoimidazol-2-yl]-pyrrolidine-1-carboxylic acid benzyl ester] | 24.1%
26 | O=C(NCc1ccc(-c2cccc(C#C[C@@H]3CCCN3C(=O)OCc3ccccc3)c2)cc1)C1CC1 [Compound 4041, (S)-2-{4′-[(Cyclopropanecarbonyl-amino)-methyl]-biphenyl-3-ylethynyl}-pyrrolidine-1-carboxylic acid benzyl ester] | 45.8%
27 | O=C(OCc1ccccc1)N1CCC[C@H]1c1nc2ccc(-c3ccc4[nH]ccc4c3)cc2[nH]1 [Compound 4035, (S)-2-[6-(1H-Indol-5-yl)-1H-benzoimidazol-2-yl]-pyrrolidine-1-carboxylic acid benzyl ester] | 99.9%
28 | O=C(Cc1cccc(-c2ccc3nc([C@@H]4CCCN4C(=O)OCc4ccccc4)[nH]c3c2)c1)NC1CC1 [Compound 4003, (S)-2-[6-(3-Cyclopropylcarbamoylmethyl-phenyl)-1H-benzoimidazol-2-yl]-pyrrolidine-1-carboxylic acid benzyl ester] | 97%
29 | O=C(Cc1ccc(-c2ccc([C@@H]3CCCN3C(=O)OCc3ccccc3)cc2)cc1)NC1CC1 (stereo in doubt) [Compound 4002, 2-(4′-Cyclopropylcarbamoylmethyl-biphenyl-4-yl)-pyrrolidine-1-carboxylic acid benzyl ester] | 33.3%
